Results: US20070203066A1, “Compositions and methods for inhibiting cellular proliferation” (priority 2005, published 2007)
pIC50: −log10 of the molar value. Like-named read-outs stand apart in the source and are kept apart here. One block for each molecule: values may come before it. Positions of bridges follow the written chain, without caps; N, C: chain ends. Non-standard residues stand in square brackets, D forms with d. Residues, ends and D or L forms follow the SMILES beside them. Primed or numbered codes have the meaning given here. Chains are numbered I, II in the order given. No end group written: not given here. Ida = iminodiacetic acid linker, its two carboxyls bind the Lys side-chain amines of two peptides, giving a homodimer; Ida(3) = iminodiacetic acid linker, Lys side-chain amines bound to its two carboxyl groups; Ida(4) = iminodiacetic acid linker (dimerization linker bound to lysine side chain); Phg = N[C@H](C(=O)O)c1ccccc1

Legend:
HUVECs = format: cell-based
How it was run: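 Proliferation read-out: BrdU incorporation after 48-hour culture (37 ° C, 5% CO2) with graded peptide doses. Cells were in EBM with 2% FCS at 5,000 per well, driven by VEGF (5 ng/ml) or bFGF (10 ng/ml), added after ≥12-hour attachment.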

[1] = tested on: bFGF-induced angiogenesis in Matrigel plugs; assay: Murine Matrigel plug angiogenesis assay; format: in vivo, C57B1/6 mice; settings: 10-12 days of treatment, hemoglobin in plugs vs +bFGF/Buffer control
Protocol: In order to assess the effect of the peptides in this invention on angiogenesis, an additional assay was used to assess antiangiogenic activity.
Briefly, Matrigel (BD Biosciences, San Jose, Calif.) is mixed with 0.5 μg/ml of bFGF. 0.5 ml of this Matrigel/bFGF mixture is then injected subcutaneously on the ventral abdominal surface at the level of the xiphoid process of C57B1/6 mice. Matrigel plugs, injected in absence of bFGF addition, are used as negative controls. Treatment with various peptides is initiated 12-18 hours later. Animals are treated by i.p. administration of peptides, dosed at 0.2mg/d of peptide dimers, and 1.4 mg/d of Pegylated peptide dimers. After 10-12 days of treatment, animals are euthanized, and the Matrigel plugs are surgically removed, and cleaned of mouse tissue, fascia, and fat. […] After centrifugation, supernatant for each plug is assayed for the presence of Hemoglobin using a Serum Hemoglobin analysis kit (Sigma Diagnostics, St. Louis, Mo.). Angiogenesis is defined as the fold increase of hemoglobin in the buffer control treated mouse Matrigel plugs, above the amount of hemoglobin in negative (−bFGF) control Matrigel plugs. For experimental peptide treated animals, the percent inhibition is defined as the inhibition seen when comparing positive control plugs (+bFGF/ Buffer treatment) with peptide treated plugs (+bFGF/ Peptide treatment).

MDA-MB-231 cells = assay: Proliferation assay of tumor cells (BrdU incorporation), MDA-MB-231; format: cell-based; settings: MDA-MB-231 proliferation, 48 hours, read-out: Inhibitory Activity (IC50 uM) MDA-MB-231
Protocol: (§1) The antiproliferative activity of selected peptides of the present invention was assessed on several tumor cell lines. Mouse Lewis lung carcinoma (LLC) cells were routinely cultured to near confluency in DMEM media with 10% FCS added. The cells were trypsinized and plated in a 96-well plate at 5,000 cells per well per 100 μl media supplemented with 2% FCS and antibiotics. MDA-MB-231 cells were routinely cultured to near confluency in advanced DMEM media supplemented with 10% FCS. The cells were allowed to adhere to the plate for at least 12 hours. Then, whole media and various concentrations of peptide, were added to the wells. The cells were cultured for 48 hours at 37 ° C. in a 5% CO2 atmosphere. Cell proliferation was determined using a bromo-deoxyuridine (BrdU) incorporation method as described by the manufacturer. Inhibition of cell proliferation, was assessed by BrdU incorporation.
(§2) The ability of representative peptides of this invention for their ability to inhibit various tumor cells line proliferation are listed below in Table 2.

[2] = tested on: Mouse Lewis lung carcinoma (LLC) cells; assay: Proliferation assay of tumor cells (BrdU incorporation), LLC; format: cell-based; settings: 48 hours, read-out: Inhibitory Activity (IC50 uM) LLC
Protocol: as §1, §2

[3] = HUVEC proliferation, bFGF at 10 ng/ml or VEGF at 5 ng/ml, 48 hours, BrdU incorporation, read-out: IC50 on HUVECs
[4] = Pegylated peptide dimers, i.p. 1.4 mg/d

Molecule: 267 (Ac-RRRRRQAVAIYFK-NH2; not fully specified (residue 13); also: homodimer via Ida linker on Lys13 side chain) [compound 267]
pIC50 (HUVECs; [3]): > 5.00 | Matrigel Model % Inhibition ([1]; peptide dimers, i.p. 0.2mg/d): 36.0%

Molecule: 375 (Ac-RRRRRQRVRIIFK-NH2; not fully specified (residue 13); also: homodimer via Ida-PEG 30 kDa linker on Lys13 side chain) [compound 375]
pIC50 (HUVECs; [3]): > 5.00 | Matrigel Model % Inhibition [1, 4]: 46.0%

IC50 (MDA-MB-231 cells): > 30 µM | IC50 [2]: > 30 µM
Molecule: CC[C@H](C)[C@H](NC(=O)[C@H](C)NC(=O)[C@@H](NC(=O)[C@H](CCCNC(=N)N)NC(=O)[C@H](CCC(N)=O)NC(=O)[C@H](CCCNC(=N)N)NC(=O)[C@H](C)NC(=O)[C@H](Cc1c[nH]cn1)NC(=O)[C@H](CCCNC(=N)N)NC(=O)[C@H](C)NC(C)=O)C(C)C)C(=O)N[C@H](C(=O)N[C@@H](Cc1ccccc1)C(=O)NCCCC[C@H](NC(=O)[C@H](Cc1ccccc1)NC(=O)[C@@H](NC(=O)[C@@H](NC(=O)[C@H](C)NC(=O)[C@@H](NC(=O)[C@H](CCCNC(=N)N)NC(=O)[C@H](CCC(N)=O)NC(=O)[C@H](CCCNC(=N)N)NC(=O)[C@H](C)NC(=O)[C@H](Cc1c[nH]cn1)NC(=O)[C@H](CCCNC(=N)N)NC(=O)[C@H](C)NC(C)=O)C(C)C)[C@@H](C)CC)[C@@H](C)CC)C(N)=O)[C@@H](C)CC [Peptide 214] (I: Ac-ARHARQRVAIIFK-NH2 / II: Ac-ARHARQRVAIIF; amide I:13-II:C)
pIC50 (HUVECs; 48 h): < 4.52

Molecule: 315 (Ac-ARRRRQAVAIYFK(Ida)-NH2; also: homodimer via Ida linker on Lys13 side chain) [compound 315]
pIC50 (HUVECs; [3]): > 5.00 | Matrigel Model % Inhibition ([1]; peptide dimers, i.p. 0.2mg/d): 52.0%

Molecule: 381 (Ac-ARRRRQAVAIYFK-NH2; not fully specified (residue 13); also: homodimer via Ida-PEG 30 kDa linker on Lys13 side chain) [compound 381]
pIC50 (HUVECs; [3]): > 5.00 | Matrigel Model % Inhibition [1, 4]: 51.0%

Molecule: 167 (Ac-RRRRRQRVRIIFK; not fully specified (C-terminus); also: homodimer via Ida linker on Lys13 side chains) [compound 167]
pIC50 (HUVECs; [3]): > 5.00 | Matrigel Model % Inhibition ([1]; peptide dimers, i.p. 0.2mg/d): 42.0%

Molecule: 331 (Ac-ARRRRQRVAIYFK-NH2; not fully specified (residue 13); also: homodimer via Lys13 side chain, GP3 linker) [compound 331]
pIC50 (HUVECs; [3]): > 5.00 | Matrigel Model % Inhibition ([1]; peptide dimers, i.p. 0.2mg/d): 44.0%

IC50 (MDA-MB-231 cells): < 10 µM | IC50 [2]: < 10 µM
Molecule: CC[C@H](C)[C@H](NC(=O)[C@H](CCCNC(=N)N)NC(=O)[C@@H](NC(=O)[C@H](CCCNC(=N)N)NC(=O)[C@H](CCC(N)=O)NC(=O)[C@H](CCCNC(=N)N)NC(=O)[C@H](CCCNC(=N)N)NC(=O)[C@H](CCCNC(=N)N)NC(=O)[C@H](CCCNC(=N)N)NC(=O)[C@@H](N)CCCNC(=N)N)C(C)C)C(=O)N[C@H](C(=O)N[C@@H](Cc1ccccc1)C(=O)NCCCC[C@H](NC(=O)[C@H](Cc1ccccc1)NC(=O)[C@@H](NC(=O)[C@@H](NC(=O)[C@H](CCCNC(=N)N)NC(=O)[C@@H](NC(=O)[C@H](CCCNC(=N)N)NC(=O)[C@H](CCC(N)=O)NC(=O)[C@H](CCCNC(=N)N)NC(=O)[C@H](CCCNC(=N)N)NC(=O)[C@H](CCCNC(=N)N)NC(=O)[C@H](CCCNC(=N)N)NC(=O)[C@@H](N)CCCNC(=N)N)C(C)C)[C@@H](C)CC)[C@@H](C)CC)C(N)=O)[C@@H](C)CC [Peptide 132] (I: H-RRRRRQRVRIIFK-NH2 / II: H-RRRRRQRVRIIF; amide I:13-II:C; N-terminus assumed)
pIC50 (HUVECs; 48 h): > 5.00

Molecule: 228 (Ac-ARRRRQRVAIYFK; also: homodimer via Ida linker on side chain of Lys13) [compound 228]
pIC50 (HUVECs; [3]): > 5.00 | Matrigel Model % Inhibition ([1]; peptide dimers, i.p. 0.2mg/d): 55.0%

Molecule: 376 (Ac-ARRRRQRVAIYFK-NH2; not fully specified (residue 13); also: homodimer via Ida-PEG 30 kDa linker on Lys13 side chain) [compound 376]
pIC50 (HUVECs; [3]): > 5.00 | Matrigel Model % Inhibition [1, 4]: 42.0%

Molecule: 513 (Ac-ARRRRIRVAIYFK; not fully specified (C-terminus); also: homodimer via Ida linker at Lys13 side chain) [compound 513]
pIC50 (HUVECs; [3]): 4.52 to 5.00

Molecule: 438 (Ac-RRRRNQAVAIYFK(Ida(4)); not fully specified (C-terminus); also: homodimer via Ida linker at K13) [compound 438]
pIC50 (HUVECs; [3]): > 5.00

Molecule: KTKRKRKKQRVKIIFVQNA [compound 105]
pIC50 (HUVECs; [3]): > 5.00

Molecule: 316 (Ac-ARRRRQAVHIYFK(Ida)-NH2; also: homodimer via Ida linker on Lys13 side chain) [compound 316]
pIC50 (HUVECs; [3]): > 5.00

Molecule: 348 (Ac-ARRRRQRVAIYHK-NH2; not fully specified (residue 13); also: homodimer of residues 1-13 via Ida linker on Lys13 side chain) [compound 348]
pIC50 (HUVECs; [3]): < 4.52

Molecule: KTKRKAKKQRVKIIFVQNM [compound 118]
pIC50 (HUVECs; [3]): > 5.00

Molecule: 224 (Ac-ARRRRQRVAIHFK; also: homodimer via Ida linker on side chain of Lys13) [compound 224]
pIC50 (HUVECs; [3]): > 5.00

Molecule: 487 (Ac-ARRRRQPVAIKF; not fully specified (residue 11); also: homodimer: Lys11 side chain bound to Ida linker (Boc on Ida N)) [compound 487]
pIC50 (HUVECs; [3]): 4.52 to 5.00

Molecule: 340 (Ac-RRHRHQHVRIYFK(Ida(3))-NH2; also: homodimer via Lys13 side chain, Ida linker (Ida amino group Boc)) [compound 340]
pIC50 (HUVECs; [3]): > 5.00

Molecule: 379 (Ac-ARRRRQRVAISFK-NH2; not fully specified (residue 13); also: homodimer via Ida linker on Lys13 side chain, Ida amine Boc) [compound 379]
pIC50 (HUVECs; [3]): > 5.00

Molecule: 279 (Ac-RRRRRQRVRIYFK-NH2; not fully specified (residue 13); also: homodimer via Ida linker on Lys13 side chain) [compound 279]
pIC50 (HUVECs; [3]): > 5.00 | Matrigel Model % Inhibition ([1]; peptide dimers, i.p. 0.2mg/d): 56.0%

Molecule: 189 (Ac-RRRRRQHVRIIF; also: dimer: C-terminal Phe bound to an amino group of a Lys linker, 2 chains per Lys) [compound 189]
pIC50 (HUVECs; [3]): > 5.00

Molecule: 343 (Ac-ARRRRQRVAIY[Phg]K-NH2; not fully specified (residue 13); also: homodimer via Lys13 side chain, Ida linker) [compound 343]
pIC50 (HUVECs; [3]): > 5.00

Molecule: 421 (Ac-RRRRRQAVAIKF; not fully specified (residue 11); also: homodimer of residues 1-12 via Ida linker on K11 side chain) [compound 421]
pIC50 (HUVECs; [3]): > 5.00

Molecule: 176 (Ac-RRRARQRVRIIF; also: homodimer via C-terminal Lys linker) [compound 176]
pIC50 (HUVECs; [3]): > 5.00

Molecule: KRKRKKQRVKIAYEEIFVKNM [compound 3]
pIC50 (HUVECs; [3]): 4.52 to 5.00
